Assays:
[1] = molecular target: T1, DP receptor (Homo sapiens, UniProt Q13258); assay: [^3H]PGD2 binding assay, cells expressing DP receptor (KD36); conditions: [^3H]PGD2 binding in the presence of unlabeled prostanoids, KD36, FIG. 3
T1 construct: the coding region of the human DP receptor was amplified through PCR; expressed in transfected cells; cDNA from human small intestine poly(A)+ RNA
T1 sequence (Q13258 1-359): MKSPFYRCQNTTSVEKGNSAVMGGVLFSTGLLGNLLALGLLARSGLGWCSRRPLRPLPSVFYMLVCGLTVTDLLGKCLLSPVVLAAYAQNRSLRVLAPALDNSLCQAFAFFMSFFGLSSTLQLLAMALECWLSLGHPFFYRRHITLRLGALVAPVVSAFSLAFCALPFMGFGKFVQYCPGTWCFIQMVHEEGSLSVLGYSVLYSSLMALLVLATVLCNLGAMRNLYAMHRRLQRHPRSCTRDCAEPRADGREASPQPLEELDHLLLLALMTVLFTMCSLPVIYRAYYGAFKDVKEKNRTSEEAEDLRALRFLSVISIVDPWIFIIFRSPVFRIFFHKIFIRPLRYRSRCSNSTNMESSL
Method: Human DP receptor cDNA was cloned through RT-PCR on the basis of the nucleotide sequence of human DP receptor cDNA described in Boie, Y. et al., J. Biol. Chem., 270: 18910-18916, 1995 and Japanese Kohyo (PCT) Patent Publication No. 10-507930. Specifically, the cDNA was prepared by use, as an template, of poly(A)+RNA (product of Clonetech) of the human small intestine in which the human DP receptor is highly expressed, and by use of oligo (dT) primer (product of Pharmacia) and MMLV reverse transcriptase (product of Pharmacia). Subsequently, the coding region of the human DP receptor was amplified through PCR (35 heat cycles, each cycle consisting of heating at 94° C. for 1 minute, at 68° C. for 1 minute, and at 72° C. for 1 minute) by use of a forward primer (5′-[…]: SEQ No. 1) containing a restriction enzyme HindIII site, and a reverse primer (5′-[…]: SEQ No. 2) containing an XbaI site. The resultant PCR product was digested with HindIII and XbaI, and subcloned into the HindIII/XbaI site of pRc/CMV. The thus-prepared human DP receptor expression plasmid was introduced into a K562 cell in a manner similar to that described in Example 1, and subjected to selection by use of geneticin and to cloning. The proliferated clones were subjected to the below-described [^3H]PGD2 binding assay, to thereby obtain clone KD36 in which the DP receptor is highly expressed.
(§1) Each of KB8 cells, KD36 cells, and K562/neo cells was resuspended in Hank's balanced salt solution (HBSS, product of Gibco BRL) so as to attain a concentration of 3×10^7 cells/ml. The resultant suspension (0.1 ml) was placed in a 0.5-ml microtube, and then cooled on ice. Subsequently, 1 nM of [^3H]PGD2 (product of Amersham) which had been diluted with HBSS was added to the suspension, to thereby allow reaction to proceed on ice for one hour. The reacted cells were placed carefully onto RPMI1640 medium (1 ml) containing 1 M sucrose and 10% fetal bovine serum, the medium having been placed in an 1.5-ml microtube and cooled by ice, and subjected to centrifugation (10,000 revolutions, three minutes) by use of a micro-centrifuge. […] The radiation activity of the cells bound to [^3H]PGD2 was measured by use of a liquid scintillation counter. The radiation activity of the cells when measured, in a manner similar to that described above, in the presence of unlabeled PGD2 (concentration: 200 times or more that of [^3H]PGD2) was used as an index of non-specific binding. […] In contrast, the specific binding of [^3H]PGD2 to KB8 or KD36 is observed.
(§2) [^3H]PGD2 binding assay described in Example 3 was carried out in the presence of various unlabeled prostanoids (products of Cayman), and the binding affinity of human CRTH2 to various prostanoids was evaluated.

[2] = molecular target: T2, human CRTH2 (Homo sapiens, UniProt Q9Y5Y4); assay: [^3H]PGD2 binding assay, cells expressing human CRTH2 (KB8); conditions: for order of the degree of the binding affinity of prostanoids to human CRTH2: [^3H]PGD2 binding in the presence of unlabeled prostanoids, KB8, FIG. 3; for degree of binding affinity of human CRTH2 compared with that of the DP receptor: comparison human CRTH2 vs DP receptor
T2 construct: A transformant into which full-length human CRTH2 cDNA is integrated is deposited as B19 cDNA; expressed in transfected cells
T2 sequence (Q9Y5Y4 1-395): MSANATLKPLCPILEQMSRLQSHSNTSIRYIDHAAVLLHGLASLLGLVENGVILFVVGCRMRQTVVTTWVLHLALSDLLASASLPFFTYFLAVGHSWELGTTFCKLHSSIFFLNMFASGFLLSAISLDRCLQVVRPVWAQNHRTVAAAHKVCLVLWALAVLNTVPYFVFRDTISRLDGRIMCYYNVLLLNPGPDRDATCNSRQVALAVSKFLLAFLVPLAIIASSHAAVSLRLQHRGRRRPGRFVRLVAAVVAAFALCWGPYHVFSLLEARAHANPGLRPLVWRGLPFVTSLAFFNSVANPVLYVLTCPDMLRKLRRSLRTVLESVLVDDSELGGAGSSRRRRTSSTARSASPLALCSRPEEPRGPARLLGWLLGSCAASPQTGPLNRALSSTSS
Method: Human CRTH2 gene expression plasmid pRc/B19 was prepared by means of a method described in detail in Nagata, K. et al., J. Immunol., 162: 1278-1286, 1999 and Japanese Sai-Kohyo (PCT) Patent Publication WO 97/46677. A transformant into which full-length human CRTH2 cDNA is integrated is deposited as B19 cDNA in National Institute of Bioscience and Human-Technology, Agency of Industrial Science and Technology (deposit number: FERM P-15616), and B19 cDNA can be used after approval is obtained from the depositor. When B19 cDNA is digested with restriction enzymes HindIII and XbaI, and is subcloned into the HindIII/XbaI site of plasmid pRc/CMV (product of Invitrogen), the same expression plasmid as the aforementioned pRc/B19 can be prepared. Through electroporation, the pRc/B19 and control plasmid pRc/CMV were genetically introduced into K562 cells, a human erythroblastic leukemia cell strain, and were subjected to selective culture for two to three weeks in the presence of 400 μg/ml of geneticin (product of SIGMA). Among the K562 cells into which the pRc/B19 had been genetically introduced, the survived cells were added to a 96-well microplate (0.3 cells per well), and then cultured for two to three weeks. The proliferated cell clones were subjected to fluorescence staining by use of an anti human CRTH2 antibody (Nagata, K. et al., J. Immunol., 162: 1278-1286, 1999), and clone KB8, in which human CRTH2 was highly expressed, was obtained. The K562 cells into which the control pRc/CMV had been genetically introduced were selected by use of geneticin, and then culture of the resultant cells was continued while polyclones were present (hereinafter the cells will be referred to as “K562/neo”).
as §1, §2

[3] = tested on: K562/neo cells; assay: Intracellular calcium assay, control K562/neo cells; format: cell-based, human; conditions: treatment with PGD2 (0.25-250 nM), Fura-2AM
Method: (§3) Each of KB8 cells, KD36 cells, and K562/neo cells was suspended in RPMI1640 medium containing 10% fetal bovine serum so as to attain a concentration of 5×10^6 cells/ml, and cultured at 37° C. for one hour in the presence of 5 μM of Fura-2AM (product of Dojindo). After completion of culturing, the cells were washed three times with HBSS through centrifugation, to thereby remove free Fura-2AM. Subsequently, the resultant cells were resuspended in HBSS containing 0.1% bovine serum albumin so as to attain a concentration of 10^6 cells/ml. The resultant suspension was placed in a quartz cell (volume: 0.4 ml), and the cell was set in spectrophotometer LS50B (product of PerkinElmer). After a sample was added to the suspension, the time-course change of the ratio of fluorescence intensities (510 nm) at excitation wavelengths of 340 nm and 380 nm was obtained through calculation by use of FL-Winlab software (product of PerkinElmer).

[4] = molecular target: T1, DP receptor; assay: Intracellular calcium assay, KD36 cells; format: cell-based; conditions: treatment with PGD2 (some nM), Fura-2AM
Method: as §3

[5] = molecular target: T2, human CRTH2; assay: Down modulation of human CRTH2 molecules from cell surface, KB8 cells; format: cell-based; conditions: 37° C. for one hour, flow cytometer, FIG. 4
Method: KB8 cells were suspended in RPMI1640 medium containing 10% fetal bovine serum so as to attain a concentration of 10^6 cells/ml, and cultured at 37° C. for one hour in the presence of a test sample. After completion of culturing, the cells were washed twice with HBSS through centrifugation, to thereby remove cell-free part of the sample. Subsequently, the resultant cells were resuspended in HBSS containing 0.5% bovine serum albumin and 0.05% NaN3, and the resultant suspension was subjected to fluorescence staining by use of anti CRTH2 monoclonal antibody HM16 and phycoerythrin-labeled anti rat immunoglobulin antibody. The average fluorescence intensity of the stained cells was measured by use of a flow cytometer (product of Becton Dickinson), and the fluorescence intensity of the cells treated with the sample was compared with that of non-treated cells (control).

[6] = molecular target: T2, human CRTH2; assay: Intracellular calcium assay, KB8 cells; format: cell-based; conditions: treatment with PGD2 (some nM), Fura-2AM
Method: as §3

| Compound | order of the degree of the binding affinity of prostanoids to the DP receptor [1] | order of the degree of the binding affinity of prostanoids to human CRTH2 [2] | concentration of calcium in the cells [3] | concentration of calcium in the cells [4] | down modulation of CRTH2 (average fluorescence intensity vs non-treated control) [5] | concentration of calcium in the cells [6] | degree of binding affinity of human CRTH2 compared with that of the DP receptor [2] |
| --- | --- | --- | --- | --- | --- | --- | --- |
| CCCCC[C@H](O)/C=C/[C@H]1C(=O)C[C@H](O)[C@@H]1C/C=C\CCCC(=O)O [PGD2, Prostaglandin D2] | PGD2=PGJ2 | PGD2≧13,14-dihydro-15-keto PGD2 | did not vary significantly | increased considerably | induce down modulation of CRTH2 significantly as compared with the control | increased considerably | equal to that of the binding affinity of the DP receptor to PGD2 |
| CCCCCC(=O)CCC1C(=O)CC(O)C1C/C=C\CCCC(=O)O (stereo not shown) [13,14-dihydro-15-keto PGD2] | PGE2>13,14-dihydro-15-keto PGD2>15-deoxydelta 12,14-PGJ2 | PGD2≧13,14-dihydro-15-keto PGD2>>prostaglandin J2 (PGJ2) | – | – | induce down modulation of CRTH2 significantly as compared with the control | – | a great difference exists between human CRTH2 and the DP receptor |
| CCCCC/C=C/C=C1/C(=O)C=CC1C/C=C\CCCC(=O)O (stereo not shown) [15-deoxydelta 12,14-PGJ2] | 13,14-dihydro-15-keto PGD2>15-deoxydelta 12,14-PGJ2≧TXB2 | prostaglandin J2 (PGJ2)>15-deoxydelta 12,14-PGJ2≧prostaglandin E2 (PGE2) | – | – | – | – | – |
| CCCCC[C@H](O)/C=C/[C@H]1OC(O)C[C@H](O)[C@@H]1C/C=C\CCCC(=O)O (stereo partly shown) [TXB2, thromboxane B2] | 15-deoxydelta 12,14-PGJ2≧TXB2≧PGA2 | prostaglandin A2 (PGA2)>>thromboxane B2 (TXB2) | – | – | – | – | – |

Now from value to compound, other results behind:

| order of the degree of the binding affinity of prostanoids to the DP receptor [1] | Compound | order of the degree of the binding affinity of prostanoids to human CRTH2 [2] | concentration of calcium in the cells [3] | concentration of calcium in the cells [4] | down modulation of CRTH2 (average fluorescence intensity vs non-treated control) [5] | concentration of calcium in the cells [6] | degree of binding affinity of human CRTH2 compared with that of the DP receptor [2] |
| --- | --- | --- | --- | --- | --- | --- | --- |
| TXB2≧PGA2 | CCCCC[C@H](O)/C=C/[C@H]1C=CC(=O)[C@@H]1C/C=C\CCCC(=O)O [PGA2, prostaglandin A2] | prostaglandin E2 (PGE2)=prostaglandin A2 (PGA2)>>thromboxane B2 (TXB2) | – | – | – | – | – |
| PGD2=PGJ2>>PGE2 | CCCCC[C@H](O)/C=C/[C@H]1C(=O)C=C[C@@H]1C/C=C\CCCC(=O)O [PGJ2, prostaglandin J2] | 13,14-dihydro-15-keto PGD2>>prostaglandin J2 (PGJ2)>15-deoxydelta 12,14-PGJ2 | – | – | – | – | – |
| PGJ2>>PGE2>13,14-dihydro-15-keto PGD2 | CCCCC[C@H](O)/C=C/[C@H]1[C@H](O)CC(=O)[C@@H]1C/C=C\CCCC(=O)O [PGE2, prostaglandin E2] | 15-deoxydelta 12,14-PGJ2≧prostaglandin E2 (PGE2)=prostaglandin A2 (PGA2) | – | – | does not exert such an effect | – | – |

Source: patent US6884593B1, “Method of identifying properties of substance with respect to human prostaglandin D2 receptors” (BML, Inc., priority 1999, dated 2005)
